{
  "source": "patent US9796777B2",
  "about": "“Methods of treating malignant tumors” (Canimguide Therapeutics AB, priority 2007, dated 2017)",
  "key": {"[1]": {"molecular_target": "T1, β2-integrin LFA-1 (CD11a) (Homo sapiens, UniProt P20701)", "T1 construct": "endogenous in cells; host or cells: human PBMC (healthy controls, cancer patients) and THP-1 monocytic cell line (ATCC)", "T1 sequence (P20701 26-1170)": "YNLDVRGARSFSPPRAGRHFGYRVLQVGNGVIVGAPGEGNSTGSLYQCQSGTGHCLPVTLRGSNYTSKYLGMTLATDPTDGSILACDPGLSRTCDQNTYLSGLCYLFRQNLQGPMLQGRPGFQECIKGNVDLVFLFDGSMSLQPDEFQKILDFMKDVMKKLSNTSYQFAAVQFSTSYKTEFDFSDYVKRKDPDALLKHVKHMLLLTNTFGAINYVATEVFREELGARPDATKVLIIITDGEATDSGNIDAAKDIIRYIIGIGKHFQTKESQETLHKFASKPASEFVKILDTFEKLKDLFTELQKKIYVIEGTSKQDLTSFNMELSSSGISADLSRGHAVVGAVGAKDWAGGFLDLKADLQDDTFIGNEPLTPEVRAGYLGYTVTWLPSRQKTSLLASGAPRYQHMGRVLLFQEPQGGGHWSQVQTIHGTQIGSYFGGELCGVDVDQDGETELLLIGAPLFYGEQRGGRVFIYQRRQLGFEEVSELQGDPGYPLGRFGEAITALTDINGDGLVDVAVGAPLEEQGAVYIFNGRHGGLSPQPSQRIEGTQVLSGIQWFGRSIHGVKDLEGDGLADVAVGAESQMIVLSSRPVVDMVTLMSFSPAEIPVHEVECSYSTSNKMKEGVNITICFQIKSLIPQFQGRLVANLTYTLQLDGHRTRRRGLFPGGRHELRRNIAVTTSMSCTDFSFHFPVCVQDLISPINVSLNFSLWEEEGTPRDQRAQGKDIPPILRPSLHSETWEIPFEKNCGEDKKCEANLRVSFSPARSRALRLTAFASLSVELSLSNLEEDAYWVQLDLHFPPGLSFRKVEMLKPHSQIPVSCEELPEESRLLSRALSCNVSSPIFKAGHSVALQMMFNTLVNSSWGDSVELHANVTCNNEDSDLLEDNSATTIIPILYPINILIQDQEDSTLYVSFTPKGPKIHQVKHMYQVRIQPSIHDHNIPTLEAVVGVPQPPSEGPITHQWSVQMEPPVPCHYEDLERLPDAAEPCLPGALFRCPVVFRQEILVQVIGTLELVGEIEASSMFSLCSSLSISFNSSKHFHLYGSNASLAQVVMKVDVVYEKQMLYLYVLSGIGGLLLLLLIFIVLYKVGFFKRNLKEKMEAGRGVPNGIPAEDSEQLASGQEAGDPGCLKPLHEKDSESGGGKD", "T1 sequence (P05107 23-769 partner)": "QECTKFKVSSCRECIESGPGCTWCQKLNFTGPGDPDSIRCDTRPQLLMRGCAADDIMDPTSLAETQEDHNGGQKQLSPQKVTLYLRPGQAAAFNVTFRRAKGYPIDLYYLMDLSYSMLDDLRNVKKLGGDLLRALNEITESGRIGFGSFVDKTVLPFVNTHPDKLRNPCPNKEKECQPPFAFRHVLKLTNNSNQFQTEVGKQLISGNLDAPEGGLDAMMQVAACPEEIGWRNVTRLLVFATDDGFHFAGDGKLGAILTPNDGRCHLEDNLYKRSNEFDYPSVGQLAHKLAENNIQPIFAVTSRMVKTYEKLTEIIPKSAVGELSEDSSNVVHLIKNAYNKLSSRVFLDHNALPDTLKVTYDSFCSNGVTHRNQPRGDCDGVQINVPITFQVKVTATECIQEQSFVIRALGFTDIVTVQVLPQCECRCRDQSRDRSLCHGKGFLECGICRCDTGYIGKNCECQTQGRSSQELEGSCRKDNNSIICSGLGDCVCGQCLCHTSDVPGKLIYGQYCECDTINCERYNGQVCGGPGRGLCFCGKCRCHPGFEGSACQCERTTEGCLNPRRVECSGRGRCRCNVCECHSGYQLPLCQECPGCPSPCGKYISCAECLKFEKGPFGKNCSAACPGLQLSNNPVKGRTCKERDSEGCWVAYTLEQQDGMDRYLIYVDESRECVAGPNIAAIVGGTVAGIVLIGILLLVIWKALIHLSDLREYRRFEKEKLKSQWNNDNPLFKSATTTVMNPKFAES", "test": "Immunocytochemical staining of PBMC and THP-1 with anti-integrin (CD11a) antibody with or without albumin peptides", "type": "binding", "settings": "mononuclear blood cells", "description": "Cytospin preparations of mononuclear blood cells from healthy controls, cancer patients and a monocytic cell line, THP-1, were prepared (as described under materials and methods), dried and stored at −70° C. In the immunocytological staining, unspecific staining was blocked by incubation with 10% human AB serum. Some of the slides were preincubated for 60 minutes with albumin peptides at a concentration of 40 μg/ml, added to this 10% AB serum, as indicated in the FIG. 8 A-F. The staining procedure was then continued as described in material and methods. The staining intensity of slides stained with and without preincubation with the peptides was recorded semi quantitatively using a standard light microscope.\nPBMC were separated as described above. Cultured THP-1 cells (obtained from the American Type Culture Collection through LGL Nordic AB, Sweden) were carefully washed and suspended in RPMI1640. PBMC and THP-1 were immediately spun down on pre-cleaned microscope slides in a Shandon Cytospin (Shandon Scientific Ltd, UK) at 1000 RPM for 7 min at 2.5 or 5×10^4 cells per slide. The slides were left to dry at room temperature over night, after which they were wrapped in parafilm and stored at −70° C. Immediately before use, the cytospins were thawed and fixed with acetone for 5 min at room temperature. The cytospins were first blocked with 10% normal human AB-serum with and without albumin peptides (40 ␣g/ml) for 1 h before staining. Primary antibody, consisting of a monoclonal mouse anti-human CD11a (clone HI111, BD Biosciences) diluted in Tris buffered saline (TBS, pH 7.6) at 5 μg/ml (THP-1) or 1 µg/ml (PBMC), was added. The slides were incubated for 30 min and then washed in TBS followed by Envision-Alkaline Phosphatase (Dako Norden A/S, Denmark) for 30 min. After additional washing in TBS, the slides were incubated in alkaline phoshatase substrate consisting of Fast Red TR salt (Sigma), naphtol AS-MX (Sigma) and 5 mM levamisol (Sigma) to block endogenous alkaline phosphatase activity, for 20 min followed by washing in TBS. They were then counterstained in Mayer's haematoxylin for 1 minute and mounted in Glycergel (Dako Norden NS). Monoclonal mouse IgG1 against an irrelevant antigen (Aspergillus niger glukosoxidase, Dako Norden NS) was used as a negative control. All incubations were performed at room temperature in a moist chamber.\nFIG. 24. Inhibition of the binding of anti-LFA-1, mab HI111, to mononuclear blood cells by 3028 peptide and fragments 3325 and 3218. A standard immunohistochemical staining procedure using acetone fixation, 10% human AB-serum for blocking, incubation with HI 111 and a secondary antibody (Ultravision, an alkaline phosphate conjugated polymer attached to Fab-fragments of goat anti-mouse Ig), followed by development with Fast Red. The slides were then mounted in Glycergel. Preincubation with peptides added to the AB serum was as follows: A. No peptide added, B. peptide 3028, C. The C-terminal part (3218), and D. The N-terminal part (3325)."}, "[2]": {"system": "PBMC", "test": "IL-2 induced proliferation of PBMC with albumin peptides in coated and uncoated tissue culture plates", "type": "cell-based, human", "description": "A mixture of 1 mg/ml IgG in a solution of 9 mg/ml HSA in RPMI (HSA/IgG) was also prepared. 200 μl of HSA or HSA/IgG were then added to each well of the plate. The plates were incubated at 4° C. for 30 minutes after which the wells were washed twice with 200 μl of RPMI1640. The coated plates were used immediately. […] PBMC, isolated from healthy individuals, were diluted in RPMI/2% HSA and peptides were added directly to the cell suspension at a concentration of 10 μg/ml."}, "[3]": {"system": "PBMC", "test": "IL-2 induced proliferation of PBMC in the presence of affinity purified rabbit anti-3028", "type": "cell-based, human", "settings": "small amount of peptide 3028 having no inhibitory activity per se", "description": "Serum containing culture medium (100 ul/well) was pre-incubated with 20 ug/ml of rabbit antibodies for 30 min at room temperature before the addition of 100 ul PBMC suspension to the culture wells."}, "[4]": {"system": "CD25", "sequence (P01589 22-240 limits assumed)": "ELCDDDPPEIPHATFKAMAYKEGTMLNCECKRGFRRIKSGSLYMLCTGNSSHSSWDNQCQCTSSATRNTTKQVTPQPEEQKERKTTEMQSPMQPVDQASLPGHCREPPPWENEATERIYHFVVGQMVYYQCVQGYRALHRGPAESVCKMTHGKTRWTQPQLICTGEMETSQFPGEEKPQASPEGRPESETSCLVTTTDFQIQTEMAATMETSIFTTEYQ", "test": "Binding of biotinylated IL-2 to CD25-Fc fusion protein on ELISA plates with or without peptide 3028", "settings": "CD25-Fc on protein G coated plates", "from_the_text": "Based on this observation, the effect of peptide 3028 on the binding of IL-2 to CD25 was studied. […] Amazingly, the binding of IL-2 to CD25 was enhanced by peptide 3028, indicating a three-part interaction between IL-2, CD25 and 3028."}, "[5]": {"system": "natural killer (NK) cells", "test": "Cytotoxic activity of natural killer (NK) cells against K562 (NKTEST, flow cytometry)", "type": "cell-based, human", "settings": "four healthy donors; peptides 10 ug/ml; effector:target ratio 40:1", "description": "Mononuclear cells were separated by standard Ficoll-paque Plus (Pharmacia AB, Sweden) density gradient centrifugation from heparinized blood obtained from healthy donors. NK cell cytotoxic activity of the mononuclear cells was then tested using a commercial kit (NKTEST, Orpegen Pharma GmbH, Heidelberg, Germany) following the manufacturers protocol. Briefly, the kit contains cryopreserved, NK-sensitive target cells (K562) labelled with a lipophilic green fluorescent membrane dye, which enables discrimination of effector and target cells. After incubation with effector cells, killed target cells are identified by a DNA-stain, which penetrates and specifically stain the nuclei of dead target cells. This way the percentage of killed targets can be determined by flow cytometry. The mononuclear cells were pre-incubated for 30 min at 37° C. with the indicated peptides (peptides have been described previously) at 10 ug/ml. Target cells were then added, giving an effector:target ratio of 40:1, and the cell mixture incubated at 37° C. for 3-4 hours. Samples were analysed on a FACSCalibur (BD Biosciences, San Jose, Calif.)."}, "[6]": {"system": "PBMC", "test": "Human ex vivo model: IL-2 induced proliferation of PBMC in the presence of albumin peptides"}},
  "data": [
    {"sequence": "VFDEFKPLVEEPQNLIK [peptide 3028]", "values": [
      {"measurement": "effect on binding of the LFA-1 antibody (HI 111) to LFA-1", "setting": "[1]", "value": "Both inhibition (FIG. 24) and enhancement of the binding"},
      {"measurement": "inhibitory effect on IL-2 induced proliferation under modulation of the Fc-receptor cross-linking", "setting": "[2]; HSA/IgG coated plates", "value": "completely reversed"},
      {"measurement": "effect on IL-2 induced proliferation", "setting": "[2]; PBMC from healthy individuals, peptide 5 μg/ml final, 7 days", "value": "highly inhibitory"},
      {"measurement": "effect on the stimulatory effect of anti-3028 antibodies", "setting": "[3]", "value": "neutralized"},
      {"measurement": "effect on the binding of IL-2 to CD25", "setting": "[4]", "value": "enhanced"},
      {"measurement": "effect on percent specific lysis of K562 target cells", "setting": "[5]", "value": "reduced the percent specific lysis of K562 target cells by all four donors"},
      {"measurement": "effect on IL-2 induced proliferation", "setting": "[6]; cancer patient PBMCs", "value": "inhibitory activity"},
      {"measurement": "effect on IL-2 induced proliferation", "setting": "[6]; human ex vivo model, PBMCs from healthy controls, peptides 10 μg/ml", "value": "regularly inhibits IL-2 induced proliferation"}
    ]}
  ]
}
